Test results: US12264339B2, “Compositions and methods involving engineered P27” (THE REGENTS OF THE UNIVERSITY OF CALIFORNIA, priority 2018, dated 2025)

What was measured:
[1] = Steady-state kinetic assays, initial rate of phosphorylation vs ATP concentration (FIGS. 1B and 1C); format: biochemical; details: summary of kinetic results, FIG. 1C
[2] = system: Rb (771-928), FoxM1 (526-748), histone H1; experiment: 32P-ATP kinase assay of protein complexes on substrates (FIG. 1A); format: biochemical; details: 0.5 μM complex, 20 μM substrate, 250 μM ATP, 30 minutes
Method: The phosphorylation activity of Cdk4 in various complexes was tested using different substrates.
The substrates used in the kinase assays were the C-terminal domain of the retinoblastoma protein (Rb (771-928); SEQ ID NO: 62), the transactivation domain of FoxM1 (FoxM1 (526-748); SEQ ID NO: 64), and full-length histone H1 (SEQ ID NO: 65).

## engineered p27 with Y74E, Y88E, and Y89E-Cdk4-CycD1 trimeric complex: trimeric complex of p27 Y74E/Y88E/Y89E, Cdk4 and CycD1; covers complexes (vii) and (viii)
[1]
  ATP substrate capture: enhances ATP substrate capture
[2]
  phosphorylation activity toward substrates: greater activity toward FoxM1 and histone 1

## Cdk4-CycD dimeric complex: Cdk4-CycD1 dimeric complex lacking p27; covers complexes (i) and (ii)
[2]
  phosphorylation activity toward substrates: high phosphorylation activity specifically for Rb
